Measurements taken from ChEMBL document CHEMBL4342441, “Small molecules targeting HIF-1α pathway for cancer therapy in recent years” (Bioorg Med Chem, 2020).

What was measured:
[1] = biological target: T1, Hypoxia-inducible factor 1-alpha (Homo sapiens, UniProt Q16665); assay: Activation of HIF1 in human T47D cells; type: cell-based
[2] = biological target: T1, Hypoxia-inducible factor 1-alpha; assay: Activation of HIF1 in human T47D cells after 30 mins by luciferase reporter gene assay; type: cell-based

T1 sequence (Q16665 whole entry): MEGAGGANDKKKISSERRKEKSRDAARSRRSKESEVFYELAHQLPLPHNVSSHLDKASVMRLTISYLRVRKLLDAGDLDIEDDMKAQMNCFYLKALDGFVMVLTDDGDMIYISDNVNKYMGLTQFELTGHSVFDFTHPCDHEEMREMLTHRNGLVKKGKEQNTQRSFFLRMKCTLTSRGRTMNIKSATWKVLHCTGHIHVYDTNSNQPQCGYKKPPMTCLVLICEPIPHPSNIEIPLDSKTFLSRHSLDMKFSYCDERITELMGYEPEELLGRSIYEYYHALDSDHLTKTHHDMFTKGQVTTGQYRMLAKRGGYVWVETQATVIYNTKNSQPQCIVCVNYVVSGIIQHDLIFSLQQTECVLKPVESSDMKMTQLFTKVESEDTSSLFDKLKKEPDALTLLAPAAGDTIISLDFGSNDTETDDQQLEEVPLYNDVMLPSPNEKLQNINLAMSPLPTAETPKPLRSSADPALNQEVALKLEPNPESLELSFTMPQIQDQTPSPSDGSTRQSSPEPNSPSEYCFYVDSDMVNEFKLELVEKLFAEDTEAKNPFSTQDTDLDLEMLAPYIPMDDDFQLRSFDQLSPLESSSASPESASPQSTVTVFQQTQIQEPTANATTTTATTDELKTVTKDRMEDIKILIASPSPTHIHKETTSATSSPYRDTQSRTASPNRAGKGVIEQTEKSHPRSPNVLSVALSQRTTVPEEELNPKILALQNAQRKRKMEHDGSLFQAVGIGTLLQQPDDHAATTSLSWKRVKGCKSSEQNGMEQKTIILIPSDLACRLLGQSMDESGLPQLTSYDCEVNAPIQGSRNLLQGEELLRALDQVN

| SMILES | IC50 [1] [nM] | IC50 [2] [nM] |
| --- | --- | --- |
| COc1ccc([C@@H](O)[C@@H](C)Oc2ccc([C@H]3O[C@H](c4ccc(OC)c(OC)c4)[C@H](C)[C@H]3C)cc2OC)cc1OC | 20 |  |
| COc1ccc([C@@H](O)[C@@H](C)Oc2ccc([C@@H]3CC[C@H](c4ccc(O[C@H](C)[C@H](O)c5ccc(OC)c(OC)c5)c(OC)c4)C3)cc2OC)cc1OC |  | 3 |
